# Experimental data: publication PMC11790914, “Chemogenomics for steroid hormone receptors (NR3)” (Communications Chemistry, 2025)
# Where “and” joins values, the source holds several entries; their conditions need not be identical. Identical values can stand only once. Like-named read-outs stand apart in the source and are kept apart here.
# Legend:
# HEK293T cells [1] = experiment: Cytotoxicity: necrosis induction (red fluorescent dye for permeable plasma membranes); assay type: cell-based; conditions: 1 µM, 24 h, necrotic cell count normalized to 0.1% DMSO, single replicates;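 further: compounds applied in DMEM high glucose with 0.1% FCS and 0.1% DMSO, necrotic HEK293T cells counted by red staining of cells whose plasma membranes had become permeable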
# ABL1 = target: T1, ABL1 (Homo sapiens, UniProt P00519); experiment: Liability panel screening by DSF: ABL1; assay type: binding; conditions: read-out: Mean ΔTM ABL1
# T1 construct: made in house
# T1 sequence (P00519 whole entry, species assumed): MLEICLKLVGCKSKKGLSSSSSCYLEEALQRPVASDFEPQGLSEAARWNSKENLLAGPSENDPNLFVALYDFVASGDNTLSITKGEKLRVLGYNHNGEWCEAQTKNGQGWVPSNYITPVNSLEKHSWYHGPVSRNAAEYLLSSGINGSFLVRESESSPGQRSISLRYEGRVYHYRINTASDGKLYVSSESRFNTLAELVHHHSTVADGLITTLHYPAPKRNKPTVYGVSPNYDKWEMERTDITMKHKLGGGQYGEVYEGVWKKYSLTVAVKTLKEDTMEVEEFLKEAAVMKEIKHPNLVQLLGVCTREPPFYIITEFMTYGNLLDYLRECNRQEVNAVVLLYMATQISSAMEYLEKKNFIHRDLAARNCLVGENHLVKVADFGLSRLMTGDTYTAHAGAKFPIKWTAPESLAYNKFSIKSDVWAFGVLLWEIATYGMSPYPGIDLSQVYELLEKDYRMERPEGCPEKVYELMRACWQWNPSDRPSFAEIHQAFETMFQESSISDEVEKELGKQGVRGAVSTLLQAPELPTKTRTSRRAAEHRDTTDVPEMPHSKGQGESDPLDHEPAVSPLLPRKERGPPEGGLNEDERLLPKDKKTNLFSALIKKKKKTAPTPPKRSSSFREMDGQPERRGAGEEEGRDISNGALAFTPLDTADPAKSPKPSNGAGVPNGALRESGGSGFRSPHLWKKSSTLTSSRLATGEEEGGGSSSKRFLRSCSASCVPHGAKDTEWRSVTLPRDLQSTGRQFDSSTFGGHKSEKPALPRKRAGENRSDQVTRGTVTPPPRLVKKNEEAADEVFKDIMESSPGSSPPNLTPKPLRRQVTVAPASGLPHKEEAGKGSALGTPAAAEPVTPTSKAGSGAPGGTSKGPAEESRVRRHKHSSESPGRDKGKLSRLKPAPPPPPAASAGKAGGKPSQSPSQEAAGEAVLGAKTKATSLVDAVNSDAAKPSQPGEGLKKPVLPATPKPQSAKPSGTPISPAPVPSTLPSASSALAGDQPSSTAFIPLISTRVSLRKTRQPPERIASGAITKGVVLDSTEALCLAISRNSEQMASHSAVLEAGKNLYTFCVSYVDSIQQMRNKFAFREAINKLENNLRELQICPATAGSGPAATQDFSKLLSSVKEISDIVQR
# Method in brief: (§1)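 Recombinant protein at 2 µM in 10 mM HEPES pH 7.5 with 500 mM NaCl was mixed with SYPRO Orange (1:1000) and heated at 3 °C/min up to 85 °C. Tm was taken as the Boltzmann-fit inflection point. Shifts are ∆Tm in K from technical duplicates.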
# AURKA = target: T2, AURKA (Homo sapiens, UniProt O14965); experiment: Liability panel screening by DSF: AURKA; assay type: binding; conditions: read-out: Mean ΔTM AURKA
# T2 construct: made in house
# T2 sequence (O14965 1-403): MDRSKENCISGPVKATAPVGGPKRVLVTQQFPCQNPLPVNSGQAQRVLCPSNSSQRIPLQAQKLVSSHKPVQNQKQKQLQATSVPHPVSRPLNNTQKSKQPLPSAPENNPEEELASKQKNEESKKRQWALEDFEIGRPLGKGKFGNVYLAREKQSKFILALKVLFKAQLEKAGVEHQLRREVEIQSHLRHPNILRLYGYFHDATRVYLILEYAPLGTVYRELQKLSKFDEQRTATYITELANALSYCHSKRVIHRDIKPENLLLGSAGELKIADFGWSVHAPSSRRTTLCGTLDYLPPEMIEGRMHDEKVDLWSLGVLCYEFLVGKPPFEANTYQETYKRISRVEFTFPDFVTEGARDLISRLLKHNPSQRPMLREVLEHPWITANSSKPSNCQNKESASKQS
# Method in brief: as §1
# CDK2 = target: T3, CDK2 (Homo sapiens, UniProt P24941); experiment: Liability panel screening by DSF: CDK2; assay type: binding; conditions: read-out: Mean ΔTM CDK2
# T3 construct: made in house
# Method in brief: as §1
# FGFR3 = target: T4, FGFR3 (Homo sapiens, UniProt P22607); experiment: Liability panel screening by DSF: FGFR3; assay type: binding; conditions: read-out: Mean ΔTM FGFR3
# T4 construct: made in house
# T4 sequence (P22607 23-806, species assumed): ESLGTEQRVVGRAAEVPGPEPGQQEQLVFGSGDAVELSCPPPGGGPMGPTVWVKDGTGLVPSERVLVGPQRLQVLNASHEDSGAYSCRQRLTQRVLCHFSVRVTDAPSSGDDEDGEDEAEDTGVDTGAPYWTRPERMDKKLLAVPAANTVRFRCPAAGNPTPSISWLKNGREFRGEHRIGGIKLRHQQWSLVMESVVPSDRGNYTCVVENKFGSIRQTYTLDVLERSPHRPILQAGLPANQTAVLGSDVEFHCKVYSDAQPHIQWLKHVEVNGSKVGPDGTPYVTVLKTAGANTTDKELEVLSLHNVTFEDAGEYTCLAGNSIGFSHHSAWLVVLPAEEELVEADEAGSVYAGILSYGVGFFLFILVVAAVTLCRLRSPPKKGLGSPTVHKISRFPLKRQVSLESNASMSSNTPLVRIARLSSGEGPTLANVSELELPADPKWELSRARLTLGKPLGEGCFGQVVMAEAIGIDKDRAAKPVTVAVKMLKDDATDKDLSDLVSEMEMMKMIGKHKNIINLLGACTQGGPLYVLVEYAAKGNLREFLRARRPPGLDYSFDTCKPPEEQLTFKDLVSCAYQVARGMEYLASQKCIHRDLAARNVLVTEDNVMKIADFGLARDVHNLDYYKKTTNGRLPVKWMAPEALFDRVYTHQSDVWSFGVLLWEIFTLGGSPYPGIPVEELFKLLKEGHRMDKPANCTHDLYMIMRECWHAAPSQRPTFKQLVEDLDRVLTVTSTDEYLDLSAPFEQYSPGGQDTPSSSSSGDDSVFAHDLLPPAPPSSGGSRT
# Method in brief: as §1
# GSK3B = target: T5, GSK3B (Homo sapiens, UniProt P49841); experiment: Liability panel screening by DSF: GSK3B; assay type: binding; conditions: read-out: Mean ΔTM GSK3B
# T5 construct: made in house
# T5 sequence (P49841 whole entry, species assumed): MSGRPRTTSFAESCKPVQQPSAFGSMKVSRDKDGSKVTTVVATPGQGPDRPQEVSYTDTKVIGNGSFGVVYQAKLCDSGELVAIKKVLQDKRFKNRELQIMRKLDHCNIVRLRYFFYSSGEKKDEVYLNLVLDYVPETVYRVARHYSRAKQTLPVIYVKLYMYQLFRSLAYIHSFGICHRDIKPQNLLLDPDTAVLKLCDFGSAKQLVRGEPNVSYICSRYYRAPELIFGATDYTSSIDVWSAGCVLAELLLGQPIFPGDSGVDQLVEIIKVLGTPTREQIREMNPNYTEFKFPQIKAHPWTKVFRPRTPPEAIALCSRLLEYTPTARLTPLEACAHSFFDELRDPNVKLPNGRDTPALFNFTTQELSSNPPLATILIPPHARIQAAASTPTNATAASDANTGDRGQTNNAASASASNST
# BRD4 = target: T6, BRD4 (Homo sapiens, UniProt O60885); experiment: Liability panel screening by DSF: BRD4; assay type: binding; conditions: read-out: Mean ΔTM BRD4
# T6 construct: This panel comprised ten highly ligandable kinases and bromodomains; made in house
# Method in brief: as §1
# BRPF1 = target: T7, BRPF1 (Homo sapiens, UniProt P55201); experiment: Liability panel screening by DSF: BRPF1; assay type: binding; conditions: read-out: Mean ΔTM BRPF1
# T7 construct: This panel comprised ten highly ligandable kinases and bromodomains; made in house
# T7 sequence (P55201 628-732 limits assumed): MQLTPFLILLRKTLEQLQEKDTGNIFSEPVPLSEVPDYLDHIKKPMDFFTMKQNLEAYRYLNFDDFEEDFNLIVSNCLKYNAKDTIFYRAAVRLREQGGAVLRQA
# Method in brief: as §1
# CSNK1D = target: T8, CSNK1D (Homo sapiens, UniProt P48730); experiment: Liability panel screening by DSF: CSNK1D; assay type: binding; conditions: read-out: Mean ΔTM CSNK1D
# T8 construct: made in house
# T8 sequence (P48730 whole entry, species assumed): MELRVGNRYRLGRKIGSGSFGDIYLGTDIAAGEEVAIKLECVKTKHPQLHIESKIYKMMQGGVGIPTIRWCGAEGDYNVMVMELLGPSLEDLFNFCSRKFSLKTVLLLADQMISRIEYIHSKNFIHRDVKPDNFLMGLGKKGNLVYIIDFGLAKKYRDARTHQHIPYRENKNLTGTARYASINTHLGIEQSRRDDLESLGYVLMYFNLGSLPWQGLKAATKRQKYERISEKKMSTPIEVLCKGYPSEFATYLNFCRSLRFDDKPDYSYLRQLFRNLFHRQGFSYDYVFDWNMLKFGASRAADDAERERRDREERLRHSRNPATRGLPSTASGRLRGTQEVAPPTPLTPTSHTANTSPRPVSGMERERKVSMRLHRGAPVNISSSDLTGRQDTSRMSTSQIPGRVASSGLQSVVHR
# Method in brief: as §1
# MAPK1 = target: T9, MAPK1 (Homo sapiens, UniProt P28482); experiment: Liability panel screening by DSF: MAPK1; assay type: binding; conditions: read-out: Mean ΔTM MAPK1
# T9 construct: made in house
# T9 sequence (P28482 whole entry, species assumed): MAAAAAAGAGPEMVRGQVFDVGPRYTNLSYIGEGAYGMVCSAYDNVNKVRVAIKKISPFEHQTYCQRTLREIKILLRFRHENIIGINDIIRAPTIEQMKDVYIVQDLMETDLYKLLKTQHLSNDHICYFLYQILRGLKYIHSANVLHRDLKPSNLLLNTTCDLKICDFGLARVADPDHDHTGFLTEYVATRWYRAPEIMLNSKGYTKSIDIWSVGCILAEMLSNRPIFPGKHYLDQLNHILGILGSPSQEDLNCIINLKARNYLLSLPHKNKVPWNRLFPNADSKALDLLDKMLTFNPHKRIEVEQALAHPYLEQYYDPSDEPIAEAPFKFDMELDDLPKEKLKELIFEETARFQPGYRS
# Method in brief: as §1
# TRIM24 = target: T10, TRIM24 (Homo sapiens, UniProt O15164); experiment: Liability panel screening by DSF: TRIM24; assay type: binding; conditions: read-out: Mean ΔTM TRIM24
# T10 construct: This panel comprised ten highly ligandable kinases and bromodomains; made in house
# T10 sequence (O15164 899-1004 limits assumed): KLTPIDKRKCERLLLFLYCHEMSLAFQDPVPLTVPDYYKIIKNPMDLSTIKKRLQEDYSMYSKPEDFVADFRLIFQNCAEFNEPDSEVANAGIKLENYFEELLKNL
# Method in brief: as §1
# [2] = tested on: NF-κB activity in HEK293 NF-κB reporter cells; experiment: NF-kB activity assay (GFP reporter, ionomycin/PMA); assay type: cell-based; conditions: for Mean NFκB response: n=3; for NF-κB activity (inflammatory response to ionomycin/PMA): HEK293 NF-κB reporter cells, compounds at recommended concentrations, imaged over 24 h, n = 3
# Method in brief: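 Reporter readout: GFP-expressing cells normalized to confluence, imaged every 90 min across 24 h after ionomycin (100 ng/mL)/PMA (10 ng/mL) stimulation of HEK293 cells pre-treated 4 h with compound (0.1% DMSO); triplicate independent experiments.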
# [3] = tested on: ATF6 activity in Hela ATF6 reporter cells; experiment: Endoplasmic reticulum stress assay (ATF6 Renilla luciferase reporter, tunicamycin); assay type: cell-based; conditions: for ATF6 activity (tunicamycin-induced endoplasmic reticulum stress): Hela ATF6 reporter cells, tunicamycin 100 ng/mL, 18 h, compounds at recommended concentrations, n = 5; for activity at 1 µM: Homo sapiens, HeLa, single replicates n=1 to n=5, read-out: ER stress [rel. ATF6 activity]
# Method in brief: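 ER stress was induced by 100 ng/mL tunicamycin added 4 h after compound (0.1% DMSO) to HeLa ATF6 reporter cells. After 18 h more, Renilla luciferase signal was read and expressed relative to DMSO control, n=5 biological replicates.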
# NR3A2 (ERβ) = conditions: cited from earlier work
# HEK293T cells [4] = experiment: Cytotoxicity: metabolic activity (WST-8 / CCK-8 assay); conditions: 1 µM; HEK293T, 24 h; WST-8; normalized to 0.1% DMSO; single replicates
# HEK293T cells [5] = experiment: Cytotoxicity: growth-rate (change in confluence over 24 h); conditions: 1 µM, normalized to 0.1% DMSO control, single replicates (n=1...)
# HEK293T cells [6] = experiment: Cytotoxicity: apoptosis induction (caspase-3/7 DEVD fluorogenic DNA dye); conditions: 1 µM; HEK293T, 24 h; apoptotic cell count normalized to 0.1% DMSO; single replicates
# Experimental: Cells were incubated with the test compounds at the indicated concentrations solubilized with 0.1% DMSO for 24 h. Growth-rate was determined based on the change in confluence over 24 h normalized to the change in confluence of cells treated with the 0.1% DMSO control (n = 10). Metabolic activity was determined with a water-soluble tetrazolium-8 (WST-8) assay (n = 8) after 24 h treatment. Apoptotic cells were detected with a fluorogenic DNA dye coupled to the caspase-3/7 recognition sequence (DEVD) after 24 h treatment and the apoptotic cell count was normalized to 0.1% DMSO treated cells (n = 6).
# HEK293T cells (German Collection of Microorganisms and Cell Culture GmbH, DSMZ; #ACC305) were cultured in DMEM high glucose, supplemented with 10% fetal calf serum (FCS), sodium pyruvate (1 mM), penicillin (100 µ/mL) and streptomycin (100 µg/mL) at 37 °C and 5% (v/v) CO2, and seeded in pre-coated (10 µg/mL collagen G solution (Merck KgaA; #L7213) for 30 min at 37 °C) 96-well plates (2 × 10^5 cells per well). After 24 h, the cells were treated with the respective NR3 CG compound candidate at the recommended concentration, bexarotene (100 µM) or doxorubicin (30 µM) as positive controls in DMEM high glucose supplemented with 0.1% FCS, penicillin (100 µ/mL), streptomycin (100 µg/mL) and 0.1% DMSO, or 0.1% DMSO alone as an untreated control. Each sample was prepared in at least four biologically independent replicates. […] Thereafter, the medium was aspirated and the cells were incubated for 3 h with 90 µL DMEM high glucose supplemented with 0.2% FCS, penicillin (100 µ/mL) and streptomycin (100 µg/mL) and additionally containing 10 µL Cell Counting Kit 8 solution (CCK-8; MedChemExpress, Monmouth Junction, New York, USA; #HY-K0301), and absorbance was measured at 1 h, 2 h and 3 h of incubation at 450 nm on a Tecan Spark Cyto to assess metabolic activity of the cells. Before drug administration, after the first medium exchange, 24 h after drug administration, and after fluorescence imaging cell confluence was assessed using the Tecan Spark Cyto, to account for changes in cell confluence due to drug administration and cell handling. Compound effects on cell confluence, apoptosis, metabolic activity and necrosis were normalized to the vehicle control of each biological replicate individually.
# Gal4-VP16 = assay type: cell-based; conditions: 1 µM; vs. DMSO ctrl; single replicates n=1-3
# NR3A1 (ERα) = conditions: cited from earlier work
SMILES,Necrosis induction [NI] (HEK293T cells [1]),"Mean NFκB response ([2]; 1 µM, 1,5 h)","Mean NFκB response ([2]; 1 µM, 4,5 h)","Mean NFκB response ([2]; 1 µM, 7,5 h)","Mean NFκB response ([2]; 1 µM, 10,5 h)","Mean NFκB response ([2]; 1 µM, 13,5 h)","Mean NFκB response ([2]; 1 µM, 16,6 h)","Mean NFκB response ([2]; 1 µM, 19,5 h)","Mean NFκB response ([2]; 1 µM, 22,5 h)","Mean NFκB response ([2]; 1 µM, 3 h)","Mean NFκB response ([2]; 1 µM, 6 h)","Mean NFκB response ([2]; 1 µM, 9 h)","Mean NFκB response ([2]; 1 µM, 12 h)","Mean NFκB response ([2]; 1 µM, 15 h)","Mean NFκB response ([2]; 1 µM, 18 h)","Mean NFκB response ([2]; 1 µM, 21 h)","Mean NFκB response ([2]; 1 µM, 24 h)",NF-κB activity (inflammatory response to ionomycin/PMA) [2],ATF6 activity (tunicamycin-induced endoplasmic reticulum stress) [3],activity at 1 µM [3],other results
"CC[C@@H]1Cc2cc(O)ccc2C2=C1c1ccc(O)cc1C[C@H]2CC [(R,R)-THC]",1.00 and 0.96 and 0.79 and 1.43,3557.96 GFP+-cells/confluence ∙ 1000,4261.58 GFP+-cells/confluence ∙ 1000,9104.56 GFP+-cells/confluence ∙ 1000,19176.29 GFP+-cells/confluence ∙ 1000,27638.90 GFP+-cells/confluence ∙ 1000,33810.34 GFP+-cells/confluence ∙ 1000,37834.35 GFP+-cells/confluence ∙ 1000,40864.97 GFP+-cells/confluence ∙ 1000,3459.65 GFP+-cells/confluence ∙ 1000,5471.05 GFP+-cells/confluence ∙ 1000,14572.22 GFP+-cells/confluence ∙ 1000,23454.30 GFP+-cells/confluence ∙ 1000,30888.37 GFP+-cells/confluence ∙ 1000,35947.21 GFP+-cells/confluence ∙ 1000,39332.93 GFP+-cells/confluence ∙ 1000,42047.68 GFP+-cells/confluence ∙ 1000,no impact on NF-κB activity,mediated resolution of the tunicamycin-induced endoplasmic reticulum stress,66%,"ΔTm at 20 µM (ABL1): 5.33 °C; ΔTm at 20 µM (AURKA): 1.62 °C; ΔTm at 20 µM (CDK2): 1.76 °C; ΔTm at 20 µM (FGFR3): 0.08 °C; ΔTm at 20 µM (GSK3B): 1.59 °C; ΔTm at 20 µM (BRD4): -3.36 °C; ΔTm at 20 µM (BRPF1): -0.77 °C; ΔTm at 20 µM (CSNK1D): -0.65 °C; ΔTm at 20 µM (MAPK1): 0.61 °C; ΔTm at 20 µM (TRIM24): 0.93 °C; IC50 (NR3A2 (ERβ); (lit.), ref Supplementary Table 1, read-out: Potency [nM] IC50, NR3A2 (ERβ)): ~4 nM; rel. activity from literature, NR3A2 (ERβ): RBA to estradiol (NR3A2 (ERβ); relative binding affinity to estradiol): 25 ± 6 RBA; Metabolic activity [MA] (HEK293T cells [4]): 1.06 and 1.04 (2×) and 0.92 and 1.05 (2×) and 0.98 and 0.82; Growth rate [GR] (HEK293T cells [5]): 1.15 and 0.31 and 1.59 and 1.75 and 1.08 and 0.52 and 0.68 and 0.76 and 0.64 and 0.98; Apoptosis induction [AI] (HEK293T cells [6]): -0.98 and -0.31 and -0.46 and 0.85 and 0.74 and 1.53"
COc1ccc2c(c1)OC(C)(C)C(c1ccccc1)C2c1ccc(OCCN2CCCC2)cc1 (centres unmarked) [Ormeloxifene],1.44 and 1.00 and 0.84 and 1.46,3755.51 GFP+-cells/confluence ∙ 1000,4450.99 GFP+-cells/confluence ∙ 1000,10042.81 GFP+-cells/confluence ∙ 1000,20884.44 GFP+-cells/confluence ∙ 1000,30159.52 GFP+-cells/confluence ∙ 1000,36246.87 GFP+-cells/confluence ∙ 1000,41125.44 GFP+-cells/confluence ∙ 1000,44312.79 GFP+-cells/confluence ∙ 1000,3914.66 GFP+-cells/confluence ∙ 1000,5719.43 GFP+-cells/confluence ∙ 1000,15929.12 GFP+-cells/confluence ∙ 1000,25867.46 GFP+-cells/confluence ∙ 1000,33826.67 GFP+-cells/confluence ∙ 1000,39021.43 GFP+-cells/confluence ∙ 1000,42782.99 GFP+-cells/confluence ∙ 1000,45591.11 GFP+-cells/confluence ∙ 1000,no impact on NF-κB activity,mediated resolution of the tunicamycin-induced endoplasmic reticulum stress,39%,"VP16 control [fold reporter gene activity] (Gal4-VP16): 1.02 fold reporter gene activity and 1.04 fold reporter gene activity and 1.38 fold reporter gene activity; ΔTm at 20 µM (ABL1; DSF, 20 µM, n=2): -0.02 °C; ΔTm at 20 µM (AURKA; DSF, 20 µM, n=2): 0.51 °C; ΔTm at 20 µM (CDK2; DSF, 20 µM, n=2): -2.04 °C; ΔTm at 20 µM (FGFR3; DSF, 20 µM, n=2): 0.15 °C; ΔTm at 20 µM (GSK3B; DSF, 20 µM, n=2): 0 °C; ΔTm at 20 µM (BRD4; DSF, 20 µM, n=2): -3.83 °C; ΔTm at 20 µM (BRPF1; DSF, 20 µM, n=2): -2.59 °C; ΔTm at 20 µM (CSNK1D; DSF, 20 µM, n=2): -0.1 °C; ΔTm at 20 µM (MAPK1; DSF, 20 µM, n=2): -2.68 °C; ΔTm at 20 µM (TRIM24; DSF, 20 µM, n=2): -3.44 °C; EC50 (NR3A1 (ERα); (lit.), ref Supplementary Table 1, read-out: Potency [nM] EC50, NR3A1 (ERα)): 13 ± 0.4 nM; rel. activity from literature, NR3A1 (ERα): % of moxestrol (NR3A1 (ERα); of moxestrol): 25 ± 2%; Metabolic activity [MA] (HEK293T cells [4]): 1.06 and 1.01 and 0.96 and 1.00 and 1.02 and 0.99 and 1.05 (2×); Growth rate [GR] (HEK293T cells [5]): 0.58 and 1.95 and 0.92 and 1.05 and 0.91 and 0.78 and 1.00 and 2.25 and 0.88 and 10.36; Apoptosis induction [AI] (HEK293T cells [6]): 0.93 and 1.23 and 0.90 and 1.47 and 0.53 and 0.80"
